Laboratory results as given in patent publication US11505574B2, “Modulation of P53 for the treatment of cancer” (THE REGENTS OF THE UNIVERSITY OF CALIFORNIA, priority 2016, dated 2022).

Key:
[1] = system: tumor cell colony formation; experiment: Tumor cell colony formation assay, cell line not stated (FIGS. 13C, 20D); assay type: cell-based; settings: with and without doxorubicin 6.25 ng/mL; versus Pen-Ctrl (FIG. 20D)
p53 [2] = experiment: Western blot for p53 and downstream targets in MCF7 cells treated with peptides; assay type: cell-based, human; settings: MCF7 cells; 2.5 μM; 18 hours (FIG. 32C)
RKO cells = experiment: RKO cell colony formation assay (peptides); assay type: cell-based, human; settings: 5 μM, 3.125 ng/mL doxorubicin 48 hours (FIG. 34D)
Procedure: (§1) For the experiments shown in FIG. 34D, RKO cells were seeded on a 6-well plate at a seed density of 2×10^3 cells per well. The following day the cells were treated with 5 μM Pen-Ctrl, 5 μM Pen-Pep23, or 5 μM Pen-Pep8. The following day, 3.125 ng/mL doxorubicin was added to the cells for 48 hours. Subsequently, the cell media was changed every 3 days until colonies were visible. The cells were fixed and stained with crystal violet.

MCF7 cells = experiment: MCF7 cell colony formation assay (peptides); assay type: cell-based, human; settings: MCF7 cells; 5 μM; 6.25 ng/mL doxorubicin 48 hours (FIG. 34C)
Procedure: In order to test the effect of the RBM38 and eIF4E peptides on cancer cell colony formation, MCF7 cells were seeded in 6-well plates at a density of 1×10^3 cells per well. The following day, cells were treated with peptides. In order to form stable complexes with PEP1, 100 μl of serum-free DMEM was added to individual Eppendorf tubes. Control (SEQ ID NO:11), RBM38, and eIF4E peptides were added at a concentration of 375 nM and then 7.5 μg of PEP1 was added to each peptide (20:1). The complexes were incubated for 20 minutes at room temperature and then added dropwise to cells. Cell media was changed every three days until colonies were visible. The cells were fixed and then stained with crystal violet.
In order to test the effect of a combination treatment comprising peptides of the present invention and a chemotherapeutic agent on cancer cell colony formation, MCF7 cells were seeded in 6-well plates at a density of 1×10^3 cells per well. The following day, cells were treated with peptides. In order to form stable complexes with PEP1, 100 μL of serum-free DMEM was added to individual Eppendorf tubes. Control, RBM38, eIF4E, and peptide-8 peptides were added at a concentration of 375 nM and then 7.5 μg of PEP1 was added to each peptide (20:1). The complexes were incubated for 20 minutes at room temperature and then added dropwise to cells. 20 minutes after addition of peptide complexes, 3.125 ng/mL doxorubicin was added to the cells. Cell media was changed every three days until colonies were visible. The cells were fixed and then stained with crystal violet.
as §1, with “34C, MCF7” for “34D, RKO”, “1×10^3” for “2×10^3”, “Pen-Ctrl” for “Pen-Ctrl, 5 μM Pen-Pep23,”, “Pen-Pep23.” for “Pen-Pep8.”, “6.25” for “3.125”

p53 [3] = experiment: Western blot for p53 and downstream targets in RKO cells treated with peptides; assay type: cell-based, human; settings: RKO cells
[4] = system: MIA-PaCa-2 pancreatic cancer cells; experiment: MIA-PaCa-2 cell colony formation assay (peptides); assay type: cell-based, human; settings: miaPaCa2 cells (mutant p53); 10 μM for 20 minutes then 0.25 ng/mL doxorubicin 18 hours (FIG. 37D)
Text: […] […] After colonies formed they were fixed (i.e., using 7:1 MeOH:glacial acetic acid) and stained with crystal violet.

HaCaT cells = experiment: HaCaT cell colony formation assay; assay type: cell-based; settings: HaCaT cells (mutant p53); 10 μM for 20 minutes then 0.5 ng/mL doxorubicin 18 hours (FIG. 37D)
Procedure: For the experiments shown in FIG. 37D, HaCaT and MiaPaCa2 cells were grown in 6-well plates at 500 cells per well. The following day, 10 μM Pen-Ctrl (SEQ ID NO:10), Pen-Pep23 (SEQ ID NO:9), or Pen-Pep8 (SEQ ID NO:50) were added to the cells for 20 minutes followed by treatment with 0.5 ng/mL doxorubicin (for HaCaT cells) or 0.25 ng/mL doxorubicin (for miaPaCa2 cells) for 18 hours, then the media was changed to fresh DMEM. After colonies formed they were fixed (i.e., using 7:1 MeOH:glacial acetic acid) and stained with crystal violet.

mutant p53 (R248W) = experiment: Western blot for mutant p53 in MIA-PaCa-2 cells treated with oligonucleotides; assay type: cell-based; settings: p53 R248W (FIGS. 29A, 29B)
Text: FIGS. 29A-29C show data illustrating the effects of oligonucleotides of the present invention with respect to wild type and mutant p53. […] Oligonucleotide sequences were as follows: M3, SEQ ID NO:14; 14A/G, SEQ ID NO:20; 14U/G, SEQ ID NO:49; 15A, SEQ ID NO:21; 6A/G, SEQ ID NO:45; 6U/G, SEQ ID NO:46; 10A/G, SEQ ID NO:47; 10 U/G, SEQ ID NO:48.
FIGS. 29A and 29B show the results of experiments exploring the effects of oligonucleotides of the present invention on wild type and mutant p53. Oligonucleotides M3, 14A/G, 15A, and 6U/G were used to treat MCF7 cells expressing wild type p53 and MIA-PaCa-2 cells expressing mutant p53 (R248W). […] The effect was limited to the 6U/G oligonucleotide. […] Oligonucleotide sequences were as follows: M3, SEQ ID NO:14; 14A/G, SEQ ID NO:20; 14U/G, SEQ ID NO:49; 15A, SEQ ID NO:21; 6A/G, SEQ ID NO:45; 6U/G, SEQ ID NO:46; 10A/G, SEQ ID NO:47; 10 U/G, SEQ ID NO:48.

p53 [5] = experiment: Western blot for p53 in MCF7 cells treated with oligonucleotides; assay type: cell-based, human; settings: MCF7 cells (FIG. 29A)

Sequence	cell colony formation, combination with doxorubicin [1]	p53 expression (Western blot) (p53 [2])	colony formation, sensitization to low-dose doxorubicin (RKO cells)	colony formation, sensitization to low-dose doxorubicin (MCF7 cells)	sensitization to low-dose etoposide (p53 Western blot) (p53 [3]; 1.5 μM for 20 minutes then 0.125 ng/mL etoposide 18 hours (FIG. 34I))	sensitization to low-dose doxorubicin (p53 Western blot) (p53 [3]; 1.5 μM for 20 minutes then 6.25 ng/mL doxorubicin 18 hours (FIG. 34I))	p53 expression (Western blot) (p53 [3]; 2.5 μM, 18 hours (FIG. 32B))	protein expression of p53 and downstream target MDM2 (Western blot) (p53 [3]; 5 μM Penetratin fusion, 18 hours (FIG. 1F))	colony formation, sensitization to low-dose doxorubicin [4]	colony formation, sensitization to low-dose doxorubicin (HaCaT cells)	p53 expression in cells expressing mutant p53 (mutant p53 (R248W))	p53 expression in cells expressing wild type p53 (p53 [5])
RQIKIWFQNRRMKWKKIGYQSHADTATKSGSTTKNRFVV [Pen-eIF4E, Penetratin fused to eIF4E peptide]	striking synergistic effect	induced p53 expression	sensitized MCF7 and RKO cells to low-dose doxorubicin	sensitized MCF7 and RKO cells to low-dose doxorubicin	also to low-dose etoposide	sensitized to low-dose doxorubicin	induced p53 expression	enhanced the protein expression of p53 and the downstream target MDM2	sensitized to low-dose doxorubicin	sensitized to low-dose doxorubicin	–	–
UUUGUUUUUUGUUU (listed as RNA, chemistry not given here) [6U/G]	–	–	–	–	–	–	–	–	–	–	downregulated expression	unregulated p53 expression
